Experiment [1] has as its system CTX-induced immunocompromised mouse model. The experiment is described as follows: Pathological changes of small intestinal mucosal tissue (HE staining) in CTX mice. The class given is in vivo, BALB/c male mice. The following applies: LEV 10 mg·kg^−1, CTX mice, FIG. 9. As to the method:
(§1) SPF BALB/c male mice that each were 6 to 8 weeks old and weighed 18 g to 22 g were provided by Liaoning Changsheng Biotechnology Co., Ltd., with animal license No.: SCXK (Liao) 2020-0001. The BALB/c mice were randomly divided into 7 groups, with 8 mice in each group. Mice in the blank group and model group were each orally gavaged with 0.4 mL of NS, mice in the positive control group were each orally gavaged with levamisole hydrochloride (LEV) (10 mg·kg^−1), and mice in the B. lactis strain XLTG11 dose groups were orally gavaged with 0.4 mL of B. lactis strain XLTG11 suspensions at doses of 1×10^9 cfu, 1×10^8 cfu, 1×10^7 cfu, and 1×10^6 cfu per mouse, respectively. The mice were orally gavaged continuously for 28 d, during which the mice could eat and drink freely. On day 23 and day 24 after the oral gavage, mice in the model group, positive control group, and B. lactis strain XLTG11 dose groups were intraperitoneally injected with CTX (40 mg·kg^−1), and mice in the blank group were intraperitoneally injected with an equal volume of NS.

Experiment [2] shares this test system. The experiment can be described thus: Villus height of small intestinal mucosa in CTX mice. The class given is in vivo, BALB/c male mice. The following applies: LEV 10 mg·kg^−1, vs model group, P<0.05, FIG. 10. As to the method: as §1
The test system is the same in experiment [3]. The format is in vivo. The method, then: as §1
Experiment [4] has the same test system. The class given is in vivo. To be noted: serum, CTX mice, LEV 10 mg·kg^−1. As to the method: as §1
min after the last oral gavage to mice in each group, eyeballs were removed, the whole blood was collected and centrifuged at 3000 r·min^−1 for 10 min, and the resulting serum was collected, dispensed, and frozen in a −80° C. refrigerator for test. Serum IgA, IgG, IL-2, IL-6, IFN-γ, and TNF-α levels were determined with an ELISA kit, and specific operation steps were conducted according to the instructions.

Where a name gives a salt, the structure may show the parent alone.

As for `c1ccc([C@H]2CN3CCSC3=N2)cc1` [Positive control, levamisole hydrochloride], in experiment [1], the “damage of the small intestinal mucosal tissue” value is reported as “improved”. Besides, the “small intestinal villus height” value in experiment [2] is “increased”. In addition, the Toe thickness difference in experiment [3] (LEV 10 mg·kg^−1, CTX mice, before vs 24 h after SRBC injection) stood at 0.054 cm. The Goblet cell number in experiment [3] (LEV 10 mg·kg^−1, CTX mice, number of goblet cells/epithelial length (mm)) amounted to 25.22. This compound came in with a Spleen index in experiment [3] (LEV 10 mg·kg^−1 oral gavage 28 d, CTX mice, spleen mass (mg)/body mass (g)) of 2.97. In experiment [3] (LEV 10 mg·kg^−1 oral gavage 28 d, CTX mice, thymus mass (mg)/body mass (g)), this compound came in with a Thymus index of 1.42. In experiment [4], this compound showed an IFN-γ of 466.78 ± 62.60 ng/L, an IL-2 of 666.32 ± 134.02 ng/L, an IL-6 of 77.12 ± 17.49 pg/mL and an IgA of 55.95 ± 3.66 ng/mL. For the same compound, in experiment [4], the IgG came to 467.59 ± 54.35 ng/mL and the TNF-α stood at 496.86 ± 49.31 ng/L.

The values are drawn from patent US11959067B2, “Bifidobacterium lactis strain for preventing or treating colitis and method for preventing or alleviating colitis” (HARBIN SUNFLOWER PHARMACEUTICAL CO., LTD., priority 2021, dated 2024).
